Source: PubChem BioAssay (NCI)
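These data come from cells grown in 96-well plates and exposed to compound for 48 hours at five concentrations. TGI marks complete inhibition of growth.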

Assays:
Experiment in all cases: DTP human tumour cell line panel, 48 h
NCI-H23 lung = test system: NCI-H23 lung
HCT-15 colon = test system: HCT-15 colon
SK-MEL-5 melanoma = test system: SK-MEL-5 melanoma
UACC-62 melanoma = test system: UACC-62 melanoma
DMS 114 small cell lung = test system: DMS 114 small cell lung
IGROV1 ovarian = test system: IGROV1 ovarian
MOLT-4 leukemia = test system: MOLT-4 leukemia
HCC-2998 colon = test system: HCC-2998 colon
786-0 renal = test system: 786-0 renal
SNB-75 CNS = test system: SNB-75 CNS
HOP-92 NSCLC = test system: HOP-92 NSCLC
M14 melanoma = test system: M14 melanoma
XF 498 CNS = test system: XF 498 CNS
UACC-257 melanoma = test system: UACC-257 melanoma
HT29 colon = test system: HT29 colon
RXF-631 renal = test system: RXF-631 renal
OVCAR-8 ovarian = test system: OVCAR-8 ovarian
RPMI-8226 leukemia = test system: RPMI-8226 leukemia
SK-OV-3 ovarian = test system: SK-OV-3 ovarian
NCI-H522 lung = test system: NCI-H522 lung
KM12 colon = test system: KM12 colon
LOX IMVI melanoma = test system: LOX IMVI melanoma
NCI-H226 lung = test system: NCI-H226 lung
SR leukemia = test system: SR leukemia
HOP-62 NSCLC = test system: HOP-62 NSCLC
KM20L2 colon = test system: KM20L2 colon
U251 CNS = test system: U251 CNS
HL-60(TB) leukemia = test system: HL-60(TB) leukemia
DLD-1 colon = test system: DLD-1 colon
EKVX NSCLC = test system: EKVX NSCLC
NCI-H460 lung = test system: NCI-H460 lung
DMS 273 small cell lung = test system: DMS 273 small cell lung
CCRF-CEM leukemia = test system: CCRF-CEM leukemia
MALME-3M melanoma = test system: MALME-3M melanoma
HOP-18 NSCLC = test system: HOP-18 NSCLC
CAKI-1 renal = test system: CAKI-1 renal
OVCAR-4 ovarian = test system: OVCAR-4 ovarian
SF-295 CNS = test system: SF-295 CNS
LXFL 529 NSCLC = test system: LXFL 529 NSCLC
OVCAR-5 ovarian = test system: OVCAR-5 ovarian
SNB-78 CNS = test system: SNB-78 CNS
UO-31 renal = test system: UO-31 renal
K-562 leukemia = test system: K-562 leukemia
COLO 205 colon = test system: COLO 205 colon
ACHN renal = test system: ACHN renal
OVCAR-3 ovarian = test system: OVCAR-3 ovarian
RXF 393 renal = test system: RXF 393 renal
SNB-19 CNS = test system: SNB-19 CNS
HCT-116 colon = test system: HCT-116 colon
SN12C renal = test system: SN12C renal
TK-10 renal = test system: TK-10 renal
SF-539 CNS = test system: SF-539 CNS
A498 renal = test system: A498 renal
A549 NSCLC = test system: A549 NSCLC
SK-MEL-28 melanoma = test system: SK-MEL-28 melanoma
SK-MEL-2 melanoma = test system: SK-MEL-2 melanoma
SF-268 CNS = test system: SF-268 CNS
M19-MEL melanoma = test system: M19-MEL melanoma
SW-620 colon = test system: SW-620 colon

Question: Which TGI (NCI-H23 lung) does the source give for COC(=O)C(=O)C(C(=O)C=C(C)C)C(=O)C(=O)Nc1cc(C(F)(F)F)ccc1Cl (centres undefined) here?
Answer: Its TGI is over 100 µM.

Question: And the TGI (HCT-15 colon)?
Answer: Its TGI is over 100 µM.

Question: What about the TGI (SK-MEL-5 melanoma) of the same compound?
Answer: Its TGI is over 100 µM.

Question: And the TGI (UACC-62 melanoma)?
Answer: Its TGI is over 100 µM.

Question: What about the TGI (DMS 114 small cell lung) of the same compound?
Answer: Its TGI is over 100 µM.

Question: And the TGI (IGROV1 ovarian)?
Answer: The TGI was over 100 µM.

Question: What about the TGI (MOLT-4 leukemia) of the same compound?
Answer: The TGI was over 100 µM.

Question: What about the TGI (HCC-2998 colon) of the same compound?
Answer: Its TGI is over 100 µM.

Question: What about the TGI (786-0 renal) of the same compound?
Answer: The TGI was over 100 µM.

Question: And the TGI (SNB-75 CNS)?
Answer: The TGI was over 100 µM.

Question: What about the TGI (HOP-92 NSCLC) of the same compound?
Answer: The TGI was over 100 µM.

Question: What about the TGI (M14 melanoma) of the same compound?
Answer: The TGI was over 100 µM.

Question: What about the TGI (XF 498 CNS) of the same compound?
Answer: The TGI was over 100 µM.

Question: And the TGI (UACC-257 melanoma)?
Answer: Its TGI is over 100 µM.

Question: What about the TGI (HT29 colon) of the same compound?
Answer: Its TGI is over 100 µM.

Question: What about the TGI (RXF-631 renal) of the same compound?
Answer: Its TGI is over 100 µM.

Question: What about the TGI (OVCAR-8 ovarian) of the same compound?
Answer: Its TGI is over 100 µM.

Question: What about the TGI (RPMI-8226 leukemia) of the same compound?
Answer: Its TGI is 67 µM.

Question: And the TGI (SK-OV-3 ovarian)?
Answer: Its TGI is over 100 µM.

Question: And the TGI (NCI-H522 lung)?
Answer: The TGI was over 100 µM.

Question: What about the TGI (KM12 colon) of the same compound?
Answer: The TGI was over 100 µM.

Question: What about the TGI (LOX IMVI melanoma) of the same compound?
Answer: The TGI was over 100 µM.

Question: What about the TGI (NCI-H226 lung) of the same compound?
Answer: The TGI was over 100 µM.

Question: What about the TGI (SR leukemia) of the same compound?
Answer: Its TGI is 39.9 µM.

Question: What about the TGI (HOP-62 NSCLC) of the same compound?
Answer: The TGI was over 100 µM.

Question: And the TGI (KM20L2 colon)?
Answer: The TGI was over 100 µM.

Question: What about the TGI (U251 CNS) of the same compound?
Answer: Its TGI is over 100 µM.

Question: And the TGI (HL-60(TB) leukemia)?
Answer: Its TGI is over 100 µM.

Question: And the TGI (DLD-1 colon)?
Answer: The TGI was over 100 µM.

Question: What about the TGI (EKVX NSCLC) of the same compound?
Answer: The TGI was over 100 µM.

Question: What about the TGI (NCI-H460 lung) of the same compound?
Answer: Its TGI is over 100 µM.

Question: And the TGI (DMS 273 small cell lung)?
Answer: Its TGI is over 100 µM.

Question: And the TGI (CCRF-CEM leukemia)?
Answer: Its TGI is 71.2 µM.

Question: What about the TGI (MALME-3M melanoma) of the same compound?
Answer: Its TGI is over 100 µM.

Question: And the TGI (HOP-18 NSCLC)?
Answer: The TGI was over 100 µM.

Question: What about the TGI (CAKI-1 renal) of the same compound?
Answer: The TGI was over 100 µM.

Question: What about the TGI (OVCAR-4 ovarian) of the same compound?
Answer: The TGI was over 100 µM.

Question: What about the TGI (SF-295 CNS) of the same compound?
Answer: Its TGI is over 100 µM.

Question: And the TGI (LXFL 529 NSCLC)?
Answer: Its TGI is over 100 µM.

Question: What about the TGI (OVCAR-5 ovarian) of the same compound?
Answer: Its TGI is over 100 µM.

Question: What about the TGI (SNB-78 CNS) of the same compound?
Answer: Its TGI is over 100 µM.

Question: And the TGI (UO-31 renal)?
Answer: Its TGI is over 100 µM.

Question: What about the TGI (K-562 leukemia) of the same compound?
Answer: Its TGI is over 100 µM.

Question: What about the TGI (COLO 205 colon) of the same compound?
Answer: The TGI was over 100 µM.

Question: What about the TGI (ACHN renal) of the same compound?
Answer: The TGI was over 100 µM.

Question: What about the TGI (OVCAR-3 ovarian) of the same compound?
Answer: The TGI was over 100 µM.

Question: What about the TGI (RXF 393 renal) of the same compound?
Answer: Its TGI is over 100 µM.

Question: What about the TGI (SNB-19 CNS) of the same compound?
Answer: The TGI was over 100 µM.

Question: And the TGI (HCT-116 colon)?
Answer: Its TGI is over 100 µM.

Question: What about the TGI (SN12C renal) of the same compound?
Answer: The TGI was over 100 µM.

Question: And the TGI (TK-10 renal)?
Answer: Its TGI is over 100 µM.

Question: And the TGI (SF-539 CNS)?
Answer: The TGI was over 100 µM.

Question: What about the TGI (A498 renal) of the same compound?
Answer: The TGI was over 100 µM.

Question: What about the TGI (A549 NSCLC) of the same compound?
Answer: The TGI was over 100 µM.

Question: And the TGI (SK-MEL-28 melanoma)?
Answer: The TGI was over 100 µM.

Question: What about the TGI (SK-MEL-2 melanoma) of the same compound?
Answer: Its TGI is over 100 µM.

Question: What about the TGI (SF-268 CNS) of the same compound?
Answer: The TGI was over 100 µM.

Question: What does the source list for CC12CC[C@@H](C(C)(C)O)C1[C@@H](O)CC1(C)C2CCC2[C@@]3(C)CC[C@H](O)C(C)(C)C3C(O)C[C@]21C (some centres undefined)?
Answer: TGI (NCI-H23 lung): 39.2 µM; TGI (HCT-15 colon): 29.4 µM; TGI (SK-MEL-5 melanoma): 21.3 µM; TGI (UACC-62 melanoma): 34.7 µM; TGI (DMS 114 small cell lung): 38.2 µM; TGI (IGROV1 ovarian): 39.5 µM; TGI (HCC-2998 colon): 36.2 µM; TGI (786-0 renal): 33.8 µM; TGI (HOP-92 NSCLC): 37.5 µM; TGI (M14 melanoma): > 100 µM; TGI (HT29 colon): 31.1 µM; TGI (RXF-631 renal): 69 µM; TGI (OVCAR-8 ovarian): 41.2 µM; TGI (RPMI-8226 leukemia): > 100 µM; TGI (KM12 colon): 38.1 µM; TGI (KM20L2 colon): 28.3 µM; TGI (U251 CNS): 40 µM; TGI (HL-60(TB) leukemia): 24.9 µM; TGI (DLD-1 colon): 53.3 µM; TGI (EKVX NSCLC): 29 µM; TGI (NCI-H460 lung): 37.5 µM; TGI (M19-MEL melanoma): 52.1 µM; TGI (CCRF-CEM leukemia): 27.3 µM; TGI (MALME-3M melanoma): 32.1 µM; TGI (HOP-18 NSCLC): 41.1 µM; TGI (OVCAR-4 ovarian): 32.6 µM; TGI (SW-620 colon): 39 µM; TGI (SF-295 CNS): 37 µM; TGI (LXFL 529 NSCLC): 29.4 µM; TGI (OVCAR-5 ovarian): 31.2 µM; TGI (SNB-78 CNS): 38.8 µM; TGI (UO-31 renal): 40 µM; TGI (K-562 leukemia): 24.5 µM; TGI (COLO 205 colon): 66.7 µM; TGI (ACHN renal): 29.1 µM; TGI (OVCAR-3 ovarian): 35.3 µM; TGI (RXF 393 renal): 23.5 µM; TGI (SNB-19 CNS): 46.5 µM; TGI (HCT-116 colon): 31.3 µM; TGI (SN12C renal): 29.9 µM; TGI (TK-10 renal): 35.6 µM; TGI (SF-539 CNS): 35.3 µM; TGI (A498 renal): 32.3 µM; TGI (A549 NSCLC): 29.7 µM; TGI (SK-MEL-28 melanoma): 40.2 µM; TGI (SK-MEL-2 melanoma): 36.8 µM; TGI (SF-268 CNS): 39.7 µM
